This assay has as its target T1, TagT (Bacillus subtilis, UniProt Q7WY78).
T1 sequence (Q7WY78 1-322): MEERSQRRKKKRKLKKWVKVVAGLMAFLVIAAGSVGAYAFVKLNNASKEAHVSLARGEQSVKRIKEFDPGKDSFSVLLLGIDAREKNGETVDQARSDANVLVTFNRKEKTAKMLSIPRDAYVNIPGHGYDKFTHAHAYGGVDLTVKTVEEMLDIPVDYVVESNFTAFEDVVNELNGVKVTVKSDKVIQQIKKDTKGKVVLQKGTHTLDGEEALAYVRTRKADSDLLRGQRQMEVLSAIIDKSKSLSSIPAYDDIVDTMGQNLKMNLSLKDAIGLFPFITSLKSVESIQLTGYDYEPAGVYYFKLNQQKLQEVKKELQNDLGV
Description: transfer of radiolabelled WTA precursor, PAGE autoradiography. In kind it is biochemical. Particulars: acceptor; co-substrate LIIA^WTA.

As for `CC(=O)N[C@H]1[C@H](O[C@H]2[C@H](O)[C@@H](NC(C)=O)C(O[C@H]3[C@H](O)[C@@H](NC(C)=O)C(O[C@H]4[C@H](O)[C@@H](NC(C)=O)C(O[C@H]5[C@H](O)[C@@H](NC(C)=O)C(O[C@H]6[C@H](O)[C@@H](NC(C)=O)C(O)O[C@@H]6CO)O[C@@H]5CO)O[C@@H]4CO)O[C@@H]3CO)O[C@@H]2CO)O[C@H](CO)[C@@H](O)[C@@H]1O` (some centres unmarked) [n=4, chitin oligosaccharide containing six GlcNAcs], the “transfer of radiolabelled WTA precursor, PAGE autoradiography” value is “LcpB and TagT transferred WTA onto chitin oligosaccharides containing five or more sugars”.

In the case of `CC(=O)N[C@H]1[C@H](O[C@H]2[C@H](O)[C@@H](NC(C)=O)[C@H](O[C@H]3[C@H](O)[C@@H](NC(C)=O)C(O)O[C@@H]3CO)O[C@@H]2CO)O[C@H](CO)[C@@H](O[C@@H]2O[C@H](CO)[C@@H](O[C@@H]3O[C@H](CO)[C@@H](O)[C@H](O)[C@H]3NC(C)=O)[C@H](O)[C@H]2NC(C)=O)[C@@H]1O` (some centres unmarked) [n=3, chitin oligosaccharide containing five GlcNAcs], the “transfer of radiolabelled WTA precursor, PAGE autoradiography” value was “LcpB and TagT transferred WTA onto chitin oligosaccharides containing five or more sugars”.

The values are drawn from publication PMC5870139 (Journal of the American Chemical Society, 2018).
